The source of these data is PubChem BioAssay AID1549 (Sanford-Burnham Center for Chemical Genomics, 2009).

A word on the Kd: it is the concentration at which binding is half-saturated.

Activity calls are given as the source filed them. The rule behind the calls is not given here.

In the test the target is Influenza A virus M2 proton channel (A/TW/4845/1999 H1N1). In words: NMR binding screen, influenza A virus M2 proton channel, Kd (AID 1549). The conditions noted are these: M2 protein.
As for `CC(=O)Nc1ccc(Oc2nc(C)cc(C)n2)cc1`, the Kd was > 4 mM (inactive).

For `O=C1c2ccccc2C(=O)c2c1ccc(O)c2O`, the Kd is > 4 mM (inactive).

For `COc1cc2ccc(=O)oc2c(OC)c1OC`, the Kd was > 4 mM (inactive).

`O=C1CNCc2[nH]c3ccccc3c2N1c1ccccc1`: the Kd was > 4 mM (inactive).

As for `O=C(Nc1cccc2cccnc12)c1cccnc1`, the Kd was > 4 mM (inactive).

With `OCC1=Cc2ccccc2OC1`, the Kd is > 4 mM (inactive).

Regarding `Cn1c(SCC(N)=O)nc2c1c(=O)[nH]c(=O)n2C`, the Kd is > 4 mM (inactive).

As for `CCOC(=O)c1cc(C)n(C)n1`, the Kd is > 4 mM (inactive).

For `CCCc1cc(=O)[nH]c2nnc(SCC(C)=O)n12`, the Kd is > 4 mM (inactive).

Take `O=C(O)CCC1NCC2CC1CN1CCCCC21` (centres undefined): the Kd was > 4 mM (inactive).

On to `CCCc1nc2ccccc2c2nc(N)nn12`, for which the Kd was > 4 mM (inactive).

With `c1cncc(Nc2nc(-c3cccnc3)cs2)c1`, the Kd is > 4 mM (inactive).

For the compound `O=S(=O)(Nc1cccnc1Cl)c1ccccc1`, the Kd was > 4 mM (inactive).

`NC(CSCSCC(N)C(=O)O)C(=O)O` (centres undefined): the Kd was > 4 mM (inactive).

For the compound `N#Cc1ccccc1CSc1ccccn1`, the Kd is > 4 mM (inactive).

For the compound `O=C(O)CC1C(=O)NCCN1Cc1cccs1` (centres undefined), the Kd was > 4 mM (inactive).

`C=CCCCCCCCCCCCC(O)CC(O)COC(C)=O` (centres undefined): the Kd is > 4 mM (inactive).

Consider `O=c1cc(-c2ccc(O)cc2)oc2cc(O)cc(O)c12`, for which the Kd was > 4 mM (inactive).

`CC(=O)OC1CCC2(C)C3CC(=O)C4(C)C(CC5OC6(CCC(C)CO6)[C@@H](C)C54)C3CC[C@H]2C1` (some centres undefined): the Kd is > 4 mM (inactive).

As for `Cc1nnc(C)n1/N=C/c1cccs1`, the Kd was > 4 mM (inactive).

Turning to `COc1cc2c(c(OC)c1OC)-c1ccc(O)c(=O)cc1[C@@H](NC(C)=O)CC2`, the Kd is > 4 mM (inactive).

For `O=C(NN1CCOCC1)c1ccccc1F`, the Kd was > 4 mM (inactive).

Consider `CC(C)NS(=O)(=O)c1ccc(N)cc1`, for which the Kd was > 4 mM (inactive).

With `CC(=O)Nc1nc(-c2cccs2)cs1`, the Kd is > 4 mM (inactive).

On to `CC(=O)c1cc(C)ccc1OC(=O)c1cccnc1`, for which the Kd was > 4 mM (inactive).

With `CC1(C)CC[C@]2(C(=O)O)CC[C@]3(C)C(=CCC4[C@@]5(C)CC[C@@H](O)C(C)(C)C5CC[C@]43C)C2C1` (some centres undefined), the Kd is > 4 mM (inactive).

For the compound `C=C1C(=O)O[C@@H]2C3OC3(C)CC/C=C(\C)CC[C@@H]12` (some centres undefined), the Kd was > 4 mM (inactive).

As to `O=C(O)C1CN(Cc2ccccc2)CCO1` (centres undefined), the Kd was > 4 mM (inactive).

In the case of `C[C@@H]1CC[C@@]23CCC4(C)[C@@](C=CC5[C@@]6(C)CC[C@H](O)C(C)(C)C6CC[C@]54C)(OC2=O)C3[C@H]1C` (some centres undefined), the Kd was > 4 mM (inactive).

`Cc1ccc(C(=O)n2cnnc2N)cc1C`: the Kd was > 4 mM (inactive).

In the case of `CNC(=O)C1CC(=O)N(c2ccc(O)cc2)C1` (centres undefined), the Kd is > 4 mM (inactive).

As to `O=C(c1ccccc1F)N1CCN(c2ccccc2)CC1`, the Kd is > 4 mM (inactive).

In the case of `CS(=O)(=O)CCCCN=C=S`, the Kd was > 4 mM (inactive).

With `Cc1ccc(C(=O)Nn2cnnc2)c(Cl)c1`, the Kd is > 4 mM (inactive).

With `CC(=O)Nc1cc(O)cc(O)c1`, the Kd is > 4 mM (inactive).

`c1cncc(C2CCCCN2)c1` (centres undefined): the Kd is > 4 mM (inactive).

As to `NC(=O)Cn1nc(-c2ccco2)ccc1=O`, the Kd was > 4 mM (inactive).

In the case of `O=C(CSc1nc2ccccc2[nH]1)N1CCCCC1`, the Kd was > 4 mM (inactive).

As to `O=C(O)CCCNC(=O)c1ccccc1C(=O)O`, the Kd is > 4 mM (inactive).

For the compound `CS(=O)(=O)N1CCN(C(=O)c2ccccc2)CC1`, the Kd is > 4 mM (inactive).

`Fc1ccc2onc(C3CCNCC3)c2c1`: the Kd was > 4 mM (inactive).

Take `Cc1onc(-c2ccccc2)c1C(=O)O`: the Kd is > 4 mM (inactive).

Take `Cc1nnsc1-c1onc(C)c1C(=O)O`: the Kd is > 4 mM (inactive).

`O=C(Nc1ccccc1F)c1ccncc1`: the Kd was > 4 mM (inactive).

Take `NC(=O)CC[C@H](N)C(=O)O`: the Kd is > 4 mM (inactive).

With `Cc1cc(C)n(-c2nncn2N)n1`, the Kd is > 4 mM (inactive).

On to `O=C(CSC1=NCCS1)N1CCc2ccccc21`, for which the Kd was > 4 mM (inactive).

For the compound `Cc1nnsc1C(=O)Nc1ccccc1[N+](=O)[O-]`, the Kd was > 4 mM (inactive).

`CC(=O)Nc1ccc(C(=O)n2nc(C)cc2C)cc1`: the Kd was > 4 mM (inactive).

`Cc1ccc(S(=O)(=O)CC(N)=O)cc1`: the Kd is > 4 mM (inactive).

As for `CC1(C)C2CC(=O)[C@]3(C)C(CC[C@@]4(C)[C@H](c5ccoc5)OC(=O)C5OC543)[C@@]2(C)[C@@H](O)C[C@H]1O` (some centres undefined), the Kd is > 4 mM (inactive).

Take `CSc1nnc(CN2CCSCC2)n1C`: the Kd was > 4 mM (inactive).

As to `Cc1cc(C(=O)N2CCN(c3ccccn3)CC2)c(C)o1`, the Kd is > 4 mM (inactive).

As for `Cc1nn(C)c(C)c1NC(=S)NC1CCCC1`, the Kd was > 4 mM (inactive).

Consider `COc1cc(C)nc(N(CCO)CCO)n1`, for which the Kd was > 4 mM (inactive).

`NC(C(=O)O)C(O)C(=O)O` (centres undefined): the Kd was > 4 mM (inactive).

As to `COc1ccc(N/C(N)=N\c2nc(C)cc(C)n2)cc1`, the Kd is > 4 mM (inactive).

`NCc1ccc2c(c1)CCO2`: the Kd was > 4 mM (inactive).

For `CN1CCC(O)N1C(=O)c1ccccc1O` (centres undefined), the Kd was > 4 mM (inactive).

With `Cc1c(C(=O)N2CCOCC2)oc2c1C(=O)CC(C)(C)C2`, the Kd was > 4 mM (inactive).

Consider `CN(c1ccccc1C(=O)N1CCOCC1)S(C)(=O)=O`, for which the Kd was > 4 mM (inactive).

As to `Cc1ccc(S(=O)(=O)CC(=O)N(C)C)cc1`, the Kd was > 4 mM (inactive).

As for `Cc1cc(C)nc(/N=C(/N)N2CCC(C(N)=O)CC2)n1`, the Kd was > 4 mM (inactive).

Consider `CC(C)CCCC(C)[C@H]1CCC2C3CC=C4C[C@@H](O)CC[C@]4(C)C3CC[C@@]21C` (some centres undefined), for which the Kd is > 4 mM (inactive).

For `O=C1NC(=O)C(Cc2cccs2)C(=O)N1`, the Kd is > 4 mM (inactive).

`O=C(O)CSc1nc2ccccc2c(=O)[nH]1`: the Kd was > 4 mM (inactive).

As to `CCOC(=O)c1c(C)nc2ncccn12`, the Kd was > 4 mM (inactive).

As to `CSc1ccccc1NC(=O)c1ccoc1C`, the Kd is > 4 mM (inactive).

Consider `CC1=CC2C(CC1=O)C(C)=CCC2C(C)C` (centres undefined), for which the Kd was > 4 mM (inactive).

In the case of `CC(=O)Nc1nc(C)c(C(C)=O)s1`, the Kd was > 4 mM (inactive).

As to `COc1ccc(Cc2nccc3cc(OC)c(OC)cc23)cc1OC`, the Kd was > 4 mM (inactive).

As for `C=CCSCC=C`, the Kd was > 4 mM (inactive).

Regarding `O=c1c2ccccc2oc2ccccc12`, the Kd was > 4 mM (inactive).

Regarding `CC(=O)C1CC[C@H]2C3CC[C@H]4C[C@H](O)CC[C@]4(C)C3CC[C@]12C` (some centres undefined), the Kd was > 4 mM (inactive).
